According to patent publication US20170159130A1, “TRANSCRIPTIONAL CLASSIFICATION AND PREDICTION OF DRUG RESPONSE (T-CAP DR)” (priority 2015, published 2017):
Like-named read-outs stand apart in the source and are kept apart here.

Test system: human myeloma cell lines (HMCLs)
Experiment: In vitro chemosensitivity (cytotoxicity) assay, CellTiter-Glo luminescent cell viability, panel of 50 HMCLs
Type: cell-based
Conditions: for IC50: single agent, viability 48 hours post treatment; for AUSC (area under the survival curve), Maximum / AUSC (area under the survival curve), Mean / AUSC (area under the survival curve), Median / AUSC (area under the survival curve), Minimum: trapezoidal rule, 48 hours post treatment
Procedure: Fifty (50) HMCLs were procured from various institutions, established and characterized, and maintained in Human Myeloma Cell Line (HMCL) media with IL-6 (Mitra et al., 2016). Table 1A provides the cytogenetic characteristics of the […] cytotoxicity assays were performed on the HMCLs to create a drug sensitivity profile in response to treatment with increasing concentrations of Bz, Cz, Ix and Opz as single agents and half-maximal inhibitory concentration/IC50 values and area under the survival curve/AUSC were calculated as described in Mitra et al. (2016). Briefly, cells were counted using Countess automated cell counter (Invitrogen) and seeded in 96-well plates at a concentration of 4×10^5 cells per mL. After 24 hours, cells were treated with increasing concentrations of Bz, Cz, Ix and Opz as single agents. […] Percent survival values were normalized to untreated controls and half-maximal inhibitory concentration/IC50 values were determined by calculating the nonlinear regression using sigmoidal dose-response equation (variable slope). Area under the survival curve/AUSC was calculated using trapezoidal rule and log2-transformed for further statistical analysis (Mitra et al., 2016). Caspase3/7 activity were evaluated using Caspase-Glo®3/7 Assay kit (Promega) on Synergy 2 Microplate Reader.

[1] = Homo sapiens, maximum across panel of 50 HMCLs, read-out: IC50, Maximum
[2] = Homo sapiens, mean across panel of 50 HMCLs, read-out: IC50, Mean
[3] = Homo sapiens, median across panel of 50 HMCLs, read-out: IC50, Median
[4] = Homo sapiens, minimum across panel of 50 HMCLs, read-out: IC50, Minimum
[5] = maximum across panel of 50 HMCLs
[6] = median across panel of 50 HMCLs
[7] = minimum across panel of 50 HMCLs

SMILES	IC50 [1]	IC50 [2]	IC50 [3]	IC50 [4]	AUSC (area under the survival curve), Maximum [5]	AUSC (area under the survival curve), Mean (mean across panel of 50 HMCLs)	AUSC (area under the survival curve), Median [6]	AUSC (area under the survival curve), Minimum [7]	IC50 (maximum across panel of 50 HMCLs, read-out: IC50, Maximum)	IC50 (mean across panel of 50 HMCLs, read-out: IC50, Mean)	IC50 (median across panel of 50 HMCLs, read-out: IC50, Median)	IC50 (minimum across panel of 50 HMCLs, read-out: IC50, Minimum)
CC(C)C[C@H](NC(=O)[C@H](CCc1ccccc1)NC(=O)CN1CCOCC1)C(=O)N[C@@H](Cc1ccccc1)C(=O)N[C@@H](CC(C)C)C(=O)[C@@]1(C)CO1 [Carfilzomib]	55.3 nM	10.9 nM	7.1 nM	0.7 nM	19.097 µM	3.5034 µM	1448.5 nM	375.5 nM	–	–	–	–
CC(C)C[C@H](NC(=O)CNC(=O)c1cc(Cl)ccc1Cl)B(O)O [Ixazomib]	–	–	–	–	46.494 µM	10.03 µM	6456.0 nM	1702.0 nM	4760 nM	155 nM	42.1 nM	15.1 nM
CC(C)C[C@H](NC(=O)[C@H](Cc1ccccc1)NC(=O)c1cnccn1)B(O)O [Bortezomib]	124 nM	17.1 nM	11.7 nM	2.8 nM	38.974 µM	2.7001 µM	1524.0 nM	319.6 nM	–	–	–	–
COC[C@H](NC(=O)c1cnc(C)s1)C(=O)N[C@@H](COC)C(=O)N[C@@H](Cc1ccccc1)C(=O)[C@@]1(C)CO1 [Oprozomib]	776 nM	45.8 nM	23.7 nM	7.6 nM	59.917 µM	5.017 µM	2885.0 nM	1050.0 nM	–	–	–	–
